Source: US20110071198A1 (priority 2008, published 2011)
Read-outs that look alike come from different tables or passages of the source.

Tests used:
[1] = literature; cited from earlier work
cPLA2 = assay type: cell-based; conditions: pretreatment of cells
Method: Agonist-stimulated activation of cPLA2 in the presence of control siRNA, β-arrestin1 siRNA, or control siRNA plus either pertussis toxin or PD98059 (PD). […] (FIG. 6D) Activation or phosphorylation of cPLA2 in siRNA-treated cells. **P=0.0085 versus respective 10-minute value; ***P=0.0047 versus respective 0-minute value. Data are mean±SEM of 3 independent experiments.
Immunoblotting and immunoprecipitation. […] For immunoprecipitation, cells were treated with serum-free media with and without nicotinic acid. Cells were washed once with PBS at 4° C., harvested by gentle scraping, pelleted, and resuspended in glycerol lysis buffer including protease and phosphatase inhibitors. […] Immunoprecipitation reactions were incubated at 4° C. for 3 hours, washed 3 times with glycerol lysis buffer, and resuspended in SDS running buffer. Samples were subjected to SDS-PAGE analysis and Western blotting with cPLA2 antibody (diluted 1:1,000; Cell Signaling Technology), phosphorylated cPLA2 antibody (diluted 1:1,000; Cell Signaling Technology), M2 antibody (diluted 1:2,000; Sigma-Aldrich), and β-arrestin antibody (diluted 1:1,000; BD Biosciences).

Langerhans cells = conditions: 10 μM for 10 minutes
Method: Data are mean±SEM of 3 independent experiments.
The plates were transferred on ice, and cells were washed twice with ice-cold PBS and then scraped in PBS containing complete protease inhibitor cocktail (Roche Applied Sciences). Cells were lysed by brief sonication and then centrifuged at 3,000 g for 5 minutes to remove unbroken cells and nuclear fractions. Subsequently, the supernatant was centrifuged at 21,000 g for 30 minutes to separate the membrane fraction (in the pellet) and cytosolic fraction (in the supernatant). The membrane pellet was resuspended in PBS, proteins in the membrane and the cytosolic fractions were measured by Bradford assay, and β-arrestins were detected by Western blot analysis.

[2] = i.p. 10, 50 or 100 mg/kg; wild-type C57BL/6, β-arrestin1-deficient and β-arrestin2-deficient mice
Method: (§1) FIG. 7. […] Animal use and protocols. All animal studies were reviewed and approved by the Duke University Internal Animal Care and Use Committee. […] Age- and weight-matched male mice over 12 weeks of age were used in all experiments. […] The animals were euthanized 30 minutes later. Serum was collected and stored at −80° C. […] After 10 minutes, the mice were placed under an LDPI laser Doppler (PeriScan PIM II; Perimed). The right ear was everted to expose the anterior/ventral surface. The laser Doppler was focused on the central portion of the ventral ear. Data were collected using the repeated data collection mode with a 5-mm×5-mm image size, a 10-second delay, and high-resolution scan. […] Readings were continually recorded for 30 minutes. As a control, each animal was subsequently treated with 4 mg/kg PGD2 dissolved in PBS.

[3] = design: species or system mice; conditions: mouse, in vivo
Method: FIG. 10. […]. Perfusion of the ventral ear in age and weight matched wild-type C57B1/6 mice was measured with laser doppler. […] The first dose was 25 mg/kg, the second dose was 50 mg/kg and the third dose was 100 mg/kg. Wild-type (rechallenge) mice received all three doses of nicotinic acid and wild-type (control) mice received the first dose of nicotinic acid followed by two subsequent doses with vehicle alone. Plotted values represent the mean change in perfusion as a function of time from 8 animals.

[4] = test system: differentiated THP-1 macrophages; conditions: 200 μM for 10 minutes; data not shown
[5] = Mouse cutaneous flushing assay (laser Doppler perfusion of ventral ear); assay type: in vivo, mice; conditions: i.p. 100 mg/kg
Method: FIGS. 8A-8E. […] Animal use and protocols. […] The animals were euthanized 30 minutes later. Serum was collected and stored at −80° C. […] Readings were continually recorded for 30 minutes.

peritoneal macrophages = conditions: 200 μM, 10 minutes
Method: as §1, with “FIGS. 8A-8E. […] Data are mean±SEM for change in perfusion as a function of time. […] (FIG. 8D) Maximum response to PGD2, plotted as mean±SEM (n=15−25 per condition). […] Thioglycollate-elicited peritoneal macrophages were loaded with H3-arachidonic acid (H3-AA) for 24 hours, and then rinsed to remove arachidonic acid not incorporated into cell membrane lipids.” for “FIG. 7.”

[6] = nicotinic acid therapy; cited from earlier work
GPR109A [7] = molecular target: T1, GPR109A (Homo sapiens, UniProt Q8TDS4); assay: ICUE cAMP assay in HEK-293 cells expressing FLAG-GPR109A and ICUE2 biosensor; assay type: cell-based
T1 construct: expressed in transfected cells; plus Zeocin with ICUE2
Method: ICUE cAMP assay. […] Experiments were performed on a NOVOstar plate reader (BMG Labtech).

GPR109A [8] = molecular target: T1, GPR109A; assay: Phosphorylated ERK immunoblotting in HEK-293 cells; assay type: cell-based; conditions: GPR109A-expressing cells
Method: Total ERK1/2 was detected with anti-MAPK1/2 (diluted 1:3,000; Upstate Biotechnology). […] Anti-rabbit and anti-mouse secondary antibodies for Western blots were obtained from Amersham Biosciences. For immunoprecipitation, cells were treated with serum-free media with and without nicotinic acid. Cells were washed once with PBS at 4° C., harvested by gentle scraping, pelleted, and resuspended in glycerol lysis buffer including protease and phosphatase inhibitors. […] Immunoprecipitation reactions were incubated at 4° C. for 3 hours, washed 3 times with glycerol lysis buffer, and resuspended in SDS running buffer. Samples were subjected to SDS-PAGE analysis and Western blotting with cPLA2 antibody (diluted 1:1,000; Cell Signaling Technology), phosphorylated cPLA2 antibody (diluted 1:1,000; Cell Signaling Technology), M2 antibody (diluted 1:2,000; Sigma-Aldrich), and β-arrestin antibody (diluted 1:1,000; BD Biosciences).

T1 sequence (Q8TDS4 whole entry, species assumed): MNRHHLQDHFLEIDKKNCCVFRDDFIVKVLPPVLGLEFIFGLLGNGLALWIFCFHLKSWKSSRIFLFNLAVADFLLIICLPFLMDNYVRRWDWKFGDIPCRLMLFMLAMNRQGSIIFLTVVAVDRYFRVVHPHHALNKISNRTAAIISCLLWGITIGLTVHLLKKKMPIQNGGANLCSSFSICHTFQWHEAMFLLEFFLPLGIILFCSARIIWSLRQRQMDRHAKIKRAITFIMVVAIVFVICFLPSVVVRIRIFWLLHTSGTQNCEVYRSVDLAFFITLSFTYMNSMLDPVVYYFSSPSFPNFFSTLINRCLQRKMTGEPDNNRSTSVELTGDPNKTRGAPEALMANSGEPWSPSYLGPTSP

## C1Cc2[nH]nc(-c3nn[nH]n3)c2C1 [MK-0354]
[1]
  cutaneous flushing: do not induce cutaneous flushing
  serum FFAs: decrease serum FFAs

## COc1cccc(-c2cc(=O)c3ccccc3o2)c1N [PD98059]
cPLA2
  basal level of phosphorylated cPLA2 after pretreatment: substantially increased

## O=C(O)c1cccnc1 [nicotinic acid, Nicotinic acid]
Langerhans cells
  recruitment of β-arrestin1 to the membrane of Langerhans cells: robust recruitment
[2]
  serum FFAs: significant and essentially identical decreases in FFAs
[3]
  tachyphylaxis to cutaneous vasodilation/flushing: rapid tachyphylaxis
[4]
  β-arrestin1 translocation in differentiated THP-1 macrophages: led to β-arrestin1 translocation
[5]; versus wild type
  nicotinic acid-stimulated increase in perfusion in β-arrestin1-deficient mice: dramatically decreased
[5]; wild-type and β-arrestin2-deficient mice
  perfusion of the ventral ear: dramatic increase in perfusion
Peritoneal macrophages; versus wild type
  release of radiolabeled eicosanoids in β-arrestin1-deficient cells: significantly reduced
Peritoneal macrophages; wild-type and β-arrestin2-deficient macrophages
  release of radiolabeled eicosanoids: increased
[6]
  occurrence of cutaneous vasodilation or flushing side effect: ~80 % of patients

## pertussis toxin
GPR109A [7]; agonist MK-0354
  MK-0354-induced cAMP decrease, sensitivity to pertussis toxin: sensitive
GPR109A [7]; agonist nicotinic acid
  nicotinic acid-induced cAMP decrease, sensitivity to pertussis toxin: sensitive
cPLA2
  basal level of phosphorylated cPLA2 after pretreatment: substantially increased
GPR109A [8]
  effect on nicotinic acid-stimulated ERK phosphorylation: all but eliminated
